Test results reported in patent US20250304620A1, “ANTIMICROBIAL PEPTIDE AND APPLICATION THEREOF” (priority 2023, published 2025).
≈ marks a conversion by molar mass, not a printed value. Marks after values point to notes of the source that are not given here. Non-standard residues stand in square brackets, D forms with d. Residues, ends and D or L forms follow the SMILES beside them. d2Nal = N[C@H](Cc1ccc2ccccc2c1)C(=O)O; d(hLeu) = CC(C)CC[C@@H](N)C(=O)O

How the values were obtained:
Enterococcus ATCC 29212 = format: cell-based
Summary of the method: (§1)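 MICs were determined by serial twofold dilution in microdilution format, following CLSI antimicrobial susceptibility testing standards. Each determination was repeated 5 times in parallel.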

[1] = system: Pseudomonas aeruginosa ATCC 27853; format: cell-based
Summary of the method: as §1

[2] = system: Corynebacterium ATCC 7715; format: cell-based
Summary of the method: as §1

[3] = system: Candida albicans ATCC MYA-2876; format: cell-based
Summary of the method: as §1

[4] = system: Klebsiella pneumoniae ATCC 700603; format: cell-based
Summary of the method: as §1

[5] = system: Serratia marcescens ATCC 29021; format: cell-based
Summary of the method: as §1

[6] = system: Trichophyton ATCC MYA-4438; format: cell-based
Summary of the method: as §1

[7] = system: Escherichia coli ATCC 25922; format: cell-based
Summary of the method: as §1

[8] = system: Candida tropicalis ATCC 750; format: cell-based
Summary of the method: as §1

Candida krusei ATCC 6258 = format: cell-based
Summary of the method: as §1

[9] = system: Methicillin-resistant Staphylococcus aureus (MRSA); format: cell-based; conditions: Methicillin-resistant
Summary of the method: (§2)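 CLSI twofold serial microdilution; MIC read per drug-resistant clinical strain; n = 5 parallel replicates.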

[10] = system: carbapenem-resistant Escherichia coli (CREC); format: cell-based; conditions: carbapenem-resistant (CREC)
Summary of the method: as §2

[11] = system: carbapenem-resistant Pseudomonas aeruginosa (CRPA); format: cell-based; conditions: carbapenem-resistant (CRPA)
Summary of the method: as §2

[12] = system: carbapenem-resistant Klebsiella pneumoniae (CRKP); format: cell-based; conditions: carbapenem-resistant (CRKP)
Summary of the method: as §2

[13] = system: vancomycin-resistant Enterococcus (VRE); format: cell-based
Summary of the method: as §2

[14] = system: Staphylococcus aureus (NRS 384); conditions: NRS 384, 3 h
Description: Trypsin (250 U/mg, pH=8.0) and AMPs (LV-1 to LV-30) were mixed in a ratio of 1:10 (w/w) and added to a reaction buffer (0.2 M sodium phosphate, 1 mM CaCl2), pH 7.5), and then incubated at 37° C. for 3 h.

[15] = system: Escherichia coli ATCC 25922; test: Oral formulations on mice with systemic bacterial infection; format: in vivo, ICR mice; conditions: 1 mg/kg gavage, three times a day for 7 days, n = 10; for Average survival times (Days): observed for 14 d
Summary of the method: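 Survival time and deaths were logged over a 14 d observation after oral gavage dosing (by body weight, thrice daily, 7 days, starting right after infection). Model: mixed-sex ICR mice, n=10 per group, intraperitoneal injection of E. coli ATCC 25922 suspension (0.2 mL, 1×10^7 CFU/mL).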

[16] = system: Pseudomonas aeruginosa ATCC 27853; test: Injectable formulations on mice infected with peritonitis; format: in vivo, ICR mice; conditions: 1 mg/kg via tail vein, twice a day for 3 days, n = 10; for Average survival times (Days): observed for 14 d
Summary of the method: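 Survival readout: deaths and survival time tracked for 14 d. Treatment was tail-vein injection by body weight, twice a day for 3 consecutive days, starting right after intraperitoneal challenge with 0.2 mL of 1×10^9 CFU/mL P. aeruginosa ATCC 27853 in male and female ICR mice.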

[17] = system: Shigella flexneri ATCC 12022; test: MIC against clinically common bacterial strain; format: cell-based
Summary of the method: as §1

Compound | MIC Enterococcus ATCC 29212 (Enterococcus ATCC 29212) [µg/mL] | MIC Pseudomonas aeruginosa ATCC 27853 [1] [µg/mL] | MIC Corynebacterium ATCC 7715 [2] [µg/mL] | MIC Candida albicans ATCC MYA-2876 [3] [µg/mL] | MIC Klebsiella pneumoniae ATCC 700603 [4] [µg/mL] | MIC Serratia marcescens ATCC 29021 [5] [µg/mL] | MIC Trichophyton ATCC MYA-4438 [6] [µg/mL] | MIC Escherichia coli ATCC 25922 [7] [µg/mL] | MIC Candida tropicalis ATCC 750 [8] [µg/mL] | MIC Candida krusei ATCC 6258 (Candida krusei ATCC 6258) [µg/mL] | MIC MRSA [9] [µg/mL] | MIC CREC [10] [µg/mL] | MIC CRPA [11] [µg/mL] | MIC CRKP [12] [µg/mL] | MIC VRE [13] [µg/mL] | Trypsin MIC [14] [µg/mL] | Number of mice that died on each day after infection: day 4 [15] [Mouse] | Number of mice that died on each day after infection: day 5 [15] [Mouse] | Number of mice that died on each day after infection: day 6 [15] [Mouse] | Number of mice that died on each day after infection: day 7 [15] [Mouse] | also measured
CC(=O)N[C@H](CCCNC(=N)N)C(=O)N[C@H](CCCCN)C(=O)N[C@H](CCC(C)C)C(=O)N[C@H](CCC(C)C)C(=O)N[C@H](Cc1ccc2ccccc2c1)C(=O)N[C@H](CCCNC(=N)N)C(=O)N[C@H](CCC(C)C)C(=O)N[C@H](CCCCN)C(=O)N[C@H](Cc1ccc2ccccc2c1)C(=O)N[C@H](CCCNC(=N)N)C(=O)N[C@H](CCCCN)C(N)=O [LV-14] (Ac-[dR][dK][d(hLeu)][d(hLeu)][d2Nal][dR][d(hLeu)][dK][d2Nal][dR][dK]-NH2) | 4 (≈ 2.37 µM) | 4 (≈ 2.37 µM) | 8 (≈ 4.74 µM) | 16 (≈ 9.48 µM) | 4 (≈ 2.37 µM) | 8 (≈ 4.74 µM) | 8 (≈ 4.74 µM) | 2 (≈ 1.18 µM) | 8 (≈ 4.74 µM) | 16 (≈ 9.48 µM) | 4 (≈ 2.37 µM) | 8 (≈ 4.74 µM) | 8 (≈ 4.74 µM) | 4 (≈ 2.37 µM) | 4 (≈ 2.37 µM) | 1 | 1 | 2 | 1 | 0 | Number of mice that died on each day after infection: day 8 [15]: 1 Mouse; Average survival times (Days) [15]: 9.8** Days; Number of mice that died on each day after infection: day 1 [16]: 1 Mouse; Number of mice that died on each day after infection: day 2 [16]: 2 Mouse; Number of mice that died on each day after infection: day 3 [16]: 0 Mouse; Number of mice that died on each day after infection: day 4 [16]: 1 Mouse; Number of mice that died on each day after infection: day 5 [16]: 1 Mouse; Average survival times (Days) [16]: 8.4** Days; MIC Shigella flexneri ATCC 12022 [17]: 4 µg/mL (≈ 2.37 µM)
CC(=O)N[C@H](CCCNC(=N)N)C(=O)N[C@H](CCCCN)C(=O)N[C@H](C)C(=O)N[C@H](C)C(=O)N[C@H](Cc1ccc2ccccc2c1)C(=O)N[C@H](CCCNC(=N)N)C(=O)N[C@H](C)C(=O)N[C@H](CCCCN)C(=O)N[C@H](Cc1ccc2ccccc2c1)C(=O)N[C@H](CCCNC(=N)N)C(=O)N[C@H](CCCCN)C(N)=O [LV-15] (Ac-[dR][dK][dA][dA][d2Nal][dR][dA][dK][d2Nal][dR][dK]-NH2) | 4 (≈ 2.63 µM) | 4 (≈ 2.63 µM) | 8 (≈ 5.26 µM) | 8 (≈ 5.26 µM) | 4 (≈ 2.63 µM) | 8 (≈ 5.26 µM) | 8 (≈ 5.26 µM) | 2 (≈ 1.32 µM) | 8 (≈ 5.26 µM) | 4 (≈ 2.63 µM) | 4 (≈ 2.63 µM) | 4 (≈ 2.63 µM) | 8 (≈ 5.26 µM) | 8 (≈ 5.26 µM) | 8 (≈ 5.26 µM) | 1 | 1 | 3 | 0 | 1 | Number of mice that died on each day after infection: day 8 [15]: 0 Mouse; Average survival times (Days) [15]: 9.6** Days; Number of mice that died on each day after infection: day 1 [16]: 1 Mouse; Number of mice that died on each day after infection: day 2 [16]: 2 Mouse; Number of mice that died on each day after infection: day 3 [16]: 0 Mouse; Number of mice that died on each day after infection: day 4 [16]: 2 Mouse; Number of mice that died on each day after infection: day 5 [16]: 0 Mouse; Average survival times (Days) [16]: 8.3** Days; MIC Shigella flexneri ATCC 12022 [17]: 2 µg/mL (≈ 1.32 µM)
CC(=O)N[C@H](CCCNC(=N)N)C(=O)N[C@H](CCCCN)C(=O)N[C@@H](C(=O)N[C@@H](C(=O)N[C@H](Cc1ccc2ccccc2c1)C(=O)N[C@H](CCCNC(=N)N)C(=O)N[C@@H](C(=O)N[C@H](CCCCN)C(=O)N[C@H](Cc1ccc2ccccc2c1)C(=O)N[C@H](CCCNC(=N)N)C(=O)N[C@H](CCCCN)C(N)=O)C(C)C)C(C)C)C(C)C [LV-16] (Ac-[dR][dK][dV][dV][d2Nal][dR][dV][dK][d2Nal][dR][dK]-NH2) | 2 (≈ 1.25 µM) | 4 (≈ 2.49 µM) | 2 (≈ 1.25 µM) | 8 (≈ 4.99 µM) | 2 (≈ 1.25 µM) | 4 (≈ 2.49 µM) | 8 (≈ 4.99 µM) | 1 (≈ 0.623 µM) | 4 (≈ 2.49 µM) | 4 (≈ 2.49 µM) | 4 (≈ 2.49 µM) | 8 (≈ 4.99 µM) | 8 (≈ 4.99 µM) | 2 (≈ 1.25 µM) | 2 (≈ 1.25 µM) | 1 | 1 | 1 | 1 | 0 | Number of mice that died on each day after infection: day 8 [15]: 2 Mouse; Average survival times (Days) [15]: 10.1*** Days; Number of mice that died on each day after infection: day 1 [16]: 2 Mouse; Number of mice that died on each day after infection: day 2 [16]: 1 Mouse; Number of mice that died on each day after infection: day 3 [16]: 1 Mouse; Number of mice that died on each day after infection: day 4 [16]: 1 Mouse; Number of mice that died on each day after infection: day 5 [16]: 0 Mouse; Average survival times (Days) [16]: 8.1** Days; MIC Shigella flexneri ATCC 12022 [17]: 2 µg/mL (≈ 1.25 µM)
